From patent US20230139171A1 (SITA Information Networking Computing UK Limited, priority 2019, published 2023)

Legend:
human TLR7 = target: T1, human TLR7 (Homo sapiens, UniProt Q9NYK1); test: TLR7 inhibition reporter assay (HEK-Blue cells, SEAP reporter, gardiquimod stimulation); type: cell-based; settings: HEK-Blue cells overexpressing human TLR7, SEAP reporter, gardiquimod 7.5 μM; read-out: TLR7 IC50
T1 construct: host or cells: HEK-Blue cells
T1 sequence (Q9NYK1 27-1049): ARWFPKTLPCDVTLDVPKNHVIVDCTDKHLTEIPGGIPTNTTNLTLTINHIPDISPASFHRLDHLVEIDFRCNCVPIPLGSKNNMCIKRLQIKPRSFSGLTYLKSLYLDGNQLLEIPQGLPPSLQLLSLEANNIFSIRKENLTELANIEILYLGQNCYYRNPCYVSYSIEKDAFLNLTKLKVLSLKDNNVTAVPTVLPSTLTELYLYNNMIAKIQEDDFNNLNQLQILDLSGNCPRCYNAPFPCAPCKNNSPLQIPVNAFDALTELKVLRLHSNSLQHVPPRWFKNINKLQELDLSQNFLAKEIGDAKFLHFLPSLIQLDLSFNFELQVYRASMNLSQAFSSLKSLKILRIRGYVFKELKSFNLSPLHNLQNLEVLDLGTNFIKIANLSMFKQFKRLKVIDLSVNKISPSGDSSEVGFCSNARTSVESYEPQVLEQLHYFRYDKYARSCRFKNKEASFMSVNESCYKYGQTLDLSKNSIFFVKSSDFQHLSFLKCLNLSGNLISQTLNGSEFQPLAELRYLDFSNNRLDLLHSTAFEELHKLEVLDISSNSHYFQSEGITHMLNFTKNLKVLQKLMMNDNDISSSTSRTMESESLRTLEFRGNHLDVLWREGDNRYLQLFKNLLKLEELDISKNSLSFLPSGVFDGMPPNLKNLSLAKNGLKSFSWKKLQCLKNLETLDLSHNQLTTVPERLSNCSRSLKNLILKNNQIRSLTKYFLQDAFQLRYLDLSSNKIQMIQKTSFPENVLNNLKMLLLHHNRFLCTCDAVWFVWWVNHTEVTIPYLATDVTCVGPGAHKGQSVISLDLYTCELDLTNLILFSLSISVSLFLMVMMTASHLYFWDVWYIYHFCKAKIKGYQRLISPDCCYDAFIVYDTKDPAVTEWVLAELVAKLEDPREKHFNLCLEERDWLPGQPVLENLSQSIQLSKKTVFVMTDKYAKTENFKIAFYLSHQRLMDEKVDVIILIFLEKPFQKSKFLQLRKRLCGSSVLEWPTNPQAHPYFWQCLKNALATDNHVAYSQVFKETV
Procedure: (§1) TLR7/8/9 Inhibition Reporter Assays
(§2) HEK-Blue™-cells (Invivogen) overexpressing human TLR7, TLR8 or TLR9 receptors were used for screening inhibitors of these receptors using an inducible SEAP (secreted embryonic alkaline phosphatase) reporter gene under the control of the IFN-β minimal promoter fused to five NF-κB and AP-1-binding sites. Briefly, cells are seeded into Greiner 384 well plates (15000 cells per well for TLR7, 20,000 for TLR8 and 25,000 for TLR9) and then treated with test compounds in DMSO to yield a final dose response concentration range of 0.05 nM-50 μM. After a 30 minute compound pre-treatment at room temperature, the cells are then stimulated with a TLR7 ligand (gardiquimod at a final concentration of 7.5 μM), TLR8 ligand (R848 at a final concentration of 15.9 μM) or TLR9 ligand (ODN2006 at a final concentration of 5 nM) to activate NF-κB and AP-1 which induce the production of SEAP. After a 22 hour incubation at 37° C., 5% CO2, SEAP levels are determined with the addition of HEK-Blue™ Detection reagent (Invivogen), a cell culture medium that allows for detection of SEAP, according to manufacturer's specifications. The percent inhibition is determined as the % reduction in the HEK-Blue signal present in wells treated with agonist plus DMSO alone compared to wells treated with a known inhibitor.

human TLR8 = target: T2, human TLR8 (Homo sapiens, UniProt Q9NR97); test: TLR8 inhibition reporter assay (HEK-Blue cells, SEAP reporter, R848 stimulation); type: cell-based; settings: HEK-Blue cells overexpressing human TLR8, SEAP reporter, R848 15.9 μM; read-out: TLR8 IC50
T2 construct: host or cells: HEK-Blue cells
T2 sequence (Q9NR97 27-1041): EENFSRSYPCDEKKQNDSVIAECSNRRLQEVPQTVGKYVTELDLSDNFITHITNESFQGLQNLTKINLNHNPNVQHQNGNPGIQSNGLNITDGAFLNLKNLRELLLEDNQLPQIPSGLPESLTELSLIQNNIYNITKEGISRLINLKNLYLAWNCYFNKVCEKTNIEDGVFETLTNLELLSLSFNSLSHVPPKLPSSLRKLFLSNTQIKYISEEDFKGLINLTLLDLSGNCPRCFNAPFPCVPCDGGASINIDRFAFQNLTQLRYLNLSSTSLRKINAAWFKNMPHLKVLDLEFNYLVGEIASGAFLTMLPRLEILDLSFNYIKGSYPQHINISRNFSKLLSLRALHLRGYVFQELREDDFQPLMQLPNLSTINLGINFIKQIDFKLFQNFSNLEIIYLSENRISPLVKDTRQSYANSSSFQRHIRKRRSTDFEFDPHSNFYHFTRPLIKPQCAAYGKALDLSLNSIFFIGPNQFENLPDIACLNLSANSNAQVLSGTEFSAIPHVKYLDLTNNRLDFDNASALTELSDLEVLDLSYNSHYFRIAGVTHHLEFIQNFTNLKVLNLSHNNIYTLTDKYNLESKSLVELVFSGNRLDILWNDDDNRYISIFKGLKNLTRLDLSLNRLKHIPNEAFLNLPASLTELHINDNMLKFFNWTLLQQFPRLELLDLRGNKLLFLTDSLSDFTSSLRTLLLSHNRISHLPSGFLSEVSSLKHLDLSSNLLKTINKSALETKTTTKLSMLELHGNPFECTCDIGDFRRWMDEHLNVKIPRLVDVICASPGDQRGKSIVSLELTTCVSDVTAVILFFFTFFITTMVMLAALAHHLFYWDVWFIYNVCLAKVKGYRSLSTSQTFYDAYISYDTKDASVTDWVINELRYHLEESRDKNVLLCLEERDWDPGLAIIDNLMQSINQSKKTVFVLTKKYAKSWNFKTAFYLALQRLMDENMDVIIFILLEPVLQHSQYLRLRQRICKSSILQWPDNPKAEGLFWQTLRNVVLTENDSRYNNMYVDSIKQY
Procedure: as §1, §2

| IC50 (human TLR7) [nM] | IC50 (human TLR8) [nM] | Compound |
| --- | --- | --- |
| 3.98 | 3.02 | CC(C)c1c(-c2cn(C)c3ncccc23)[nH]c2sc(C3CCN(CC(N)=O)CC3)nc12 [Example 31, 2-(4-(6-isopropyl-5-(1-methyl-1H-pyrrolo[2,3-b]pyridin-3-yl)-4H-pyrrolo[3,2-d]thiazol-2-yl)piperidin-1-yl) acetamide] |
| 3.41 | 15.9 | CC(C)c1c(-c2cn(C)c3ncccc23)[nH]c2sc(C3CCN(C(=O)CN(C)C)CC3)nc12 [Example 32, 2-(dimethylamino)-1-(4-(6-isopropyl-5-(1-methyl-1H-pyrrolo[2,3-b]pyridin-3-yl)-4H-pyrrolo[3,2-d]thiazol-2-yl)piperidin-1-yl)ethan-1-one] |
| 3.86 | 1.52 | CC(C)c1c(-c2cn(C)c3ncccc23)[nH]c2sc(C3CCN(CCS(C)(=O)=O)CC3)nc12 [Example 33, 6-isopropyl-5-(1-methyl-1H-pyrrolo[2,3-b]pyridin-3-yl)-2-(1-(2-(methylsulfonyl)ethyl)piperidin-4-yl)-4H-pyrrolo[3,2-d]thiazole] |
| 4.44 | 4.94 | CC(C)c1c(-c2cn(C)c3ncccc23)[nH]c2sc(C3CCN(C4COC4)CC3)nc12 [Example 34, 6-isopropyl-5-(1-methyl-1H-pyrrolo[2,3-b]pyridin-3-yl)-2-(1-(oxetan-3-yl)piperidin-4-yl)-4H-pyrrolo[3,2-d]thiazole] |
| 2.54 | 5.22 | Cc1c(-c2[nH]c3sc(C4CCN(C5COC5)CC4)nc3c2C(C)C)cn2ncnc2c1C [Example 43, 5-(7,8-dimethyl-[1,2,4]triazolo[1,5-a]pyridin-6-yl)-6-isopropyl-2-(1-(oxetan-3-yl)piperidin-4-yl)-4H-pyrrolo[3,2-d]thiazole] |
| 2.99 | 1.15 | Cc1c(-c2[nH]c3sc(C4CCN(CCS(C)(=O)=O)CC4)nc3c2C(C)C)cn2ncnc2c1C [Example 55, 5-(7,8-dimethyl-[1,2,4]triazolo[1,5-a]pyridin-6-yl)-6-isopropyl-2-(1-(2-(methylsulfonyl)ethyl)piperidin-4-yl)-4H-pyrrolo[3,2-d]thiazole] |
| 4.36 | 3.43 | CNC(=O)CN1CCC(c2nc3c(C(C)C)c(-c4cn5ncnc5c(C)c4C)[nH]c3s2)CC1 [Example 56, 2-(4-(5-(7,8-dimethyl-[1,2,4]triazolo[1,5-a]pyridin-6-yl)-6-isopropyl-4H-pyrrolo[3,2-d]thiazol-2-yl)piperidin-1-yl)-N-methylacetamide] |
| 5.83 | 47.2 | CC(=O)N1CCC(c2nc3c(C(C)C)c(-c4cn5ncnc5c(C)c4C)[nH]c3s2)CC1 [Example 59, 1-(4-(5-(7,8-dimethyl-[1,2,4]triazolo[1,5-a]pyridin-6-yl)-6-isopropyl-4H-pyrrolo[3,2-d]thiazol-2-yl)piperidin-1-yl)ethan-1-one] |
| 36.6 | 27.9 | Cc1c(-c2[nH]c3sc(C4CCN(C5COC5)CC4)nc3c2C(C)C)cn(C)c(=O)c1C [Example 60, 5-(6-isopropyl-2-(1-(oxetan-3-yl)piperidin-4-yl)-4H-pyrrolo[3,2-d]thiazol-5-yl)-1,3,4-trimethylpyridin-2(1H)-one] |
| 22.7 | 5.33 | Cc1c(-c2[nH]c3sc(C4CCN(CCS(C)(=O)=O)CC4)nc3c2C(C)C)cn(C)c(=O)c1C [Example 61, 5-(6-isopropyl-2-(1-(2-(methylsulfonyl)ethyl)piperidin-4-yl)-4H-pyrrolo[3,2-d]thiazol-5-yl)-1,3,4-trimethylpyridin-2(1H)-one] |
| 88.6 | 22.3 | Cc1c(-c2[nH]c3sc(C4CCN(CC(=O)N(C)C)CC4)nc3c2C(C)C)cn(C)c(=O)c1C [Example 62, 2-(4-(6-isopropyl-5-(1,4,5-trimethyl-6-oxo-1,6-dihydropyridin-3-yl)-4H-pyrrolo[3,2-d]thiazol-2-yl)piperidin-1-yl)-N,N-dimethylacetamide] |
| 24.8 | 14.6 | CNC(=O)CN1CCC(c2nc3c(C(C)C)c(-c4cn(C)c(=O)c(C)c4C)[nH]c3s2)CC1 [Example 63, 2-(4-(6-isopropyl-5-(1,4,5-trimethyl-6-oxo-1,6-dihydropyridin-3-yl)-4H-pyrrolo[3,2-d]thiazol-2-yl)piperidin-1-yl)-N-methylacetamide] |
| 32.7 | 10.4 | Cc1c(-c2[nH]c3sc(C4CCN(CC(N)=O)CC4)nc3c2C(C)C)cn(C)c(=O)c1C [Example 64, 2-(4-(6-isopropyl-5-(1,4,5-trimethyl-6-oxo-1,6-dihydropyridin-3-yl)-4H-pyrrolo[3,2-d]thiazol-2-yl)piperidin-1-yl)acetamide] |
| 29.8 | 5.33 | Cc1c(-c2[nH]c3sc(N4CCN(CCS(C)(=O)=O)CC4)nc3c2C(C)C)cn2ncnc2c1C [Example 282, 5-(7,8-dimethyl-[1,2,4]triazolo[1,5-a]pyridin-6-yl)-6-isopropyl-2-(4-(2-(methylsulfonyl)ethyl)piperazin-1-yl)-4H-pyrrolo[3,2-d]thiazole] |
| 18.8 | 1.7 | Cc1c(-c2[nH]c3sc(N4CCN(CC(=O)N(C)C)CC4)nc3c2C(C)C)cn2ncnc2c1C [Example 283, 2-(4-(5-(7,8-dimethyl-[1,2,4]triazolo[1,5-a]pyridin-6-yl)-6-isopropyl-4H-pyrrolo[3,2-d]thiazol-2-yl)piperazin-1-yl)-N,N-dimethylacetamide] |
| 9.6 | 5.12 | CNC(=O)CN1CCN(c2nc3c(C(C)C)c(-c4cn5ncnc5c(C)c4C)[nH]c3s2)CC1 [Example 284, 2-(4-(5-(7,8-dimethyl-[1,2,4]triazolo[1,5-a]pyridin-6-yl)-6-isopropyl-4H-pyrrolo[3,2-d]thiazol-2-yl)piperazin-1-yl)-N-methylacetamide] |
| 1120 | – | Cc1cc(-c2[nH]c3sc(N4CCN(CC(C)(C)O)C[C@H]4C)nc3c2C(C)C)cn2ncnc12 [Example 359, (R)-1-(4-(6-isopropyl-5-(8-methyl-[1,2,4]triazolo[1,5-a]pyridin-6-yl)-4H-pyrrolo[3,2-d]thiazol-2-yl)-3-methylpiperazin-1-yl)-2-methylpropan-2-ol] |
